This passage reports IC50 and Ki results from ChEMBL document CHEMBL1909046, “DrugMatrix in vitro pharmacology data”.

For test [1], the target named is Mitogen-activated protein kinase 14 (Homo sapiens, UniProt Q16539). More on the design: species or system Escherichia coli.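 Further: inhibition of p38alpha enzyme activity in a biochemical kinase assay, with myelin basic protein serving as substrate; in other assays of this panel Not Active means under 50% inhibition at 10 µM.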
Test [2] concerns the target T1, Estrogen receptor (Homo sapiens, UniProt P03372). Further: in other assays of this panel Not Active means under 50% inhibition at 10 µM.
T1 sequence (P03372 whole entry): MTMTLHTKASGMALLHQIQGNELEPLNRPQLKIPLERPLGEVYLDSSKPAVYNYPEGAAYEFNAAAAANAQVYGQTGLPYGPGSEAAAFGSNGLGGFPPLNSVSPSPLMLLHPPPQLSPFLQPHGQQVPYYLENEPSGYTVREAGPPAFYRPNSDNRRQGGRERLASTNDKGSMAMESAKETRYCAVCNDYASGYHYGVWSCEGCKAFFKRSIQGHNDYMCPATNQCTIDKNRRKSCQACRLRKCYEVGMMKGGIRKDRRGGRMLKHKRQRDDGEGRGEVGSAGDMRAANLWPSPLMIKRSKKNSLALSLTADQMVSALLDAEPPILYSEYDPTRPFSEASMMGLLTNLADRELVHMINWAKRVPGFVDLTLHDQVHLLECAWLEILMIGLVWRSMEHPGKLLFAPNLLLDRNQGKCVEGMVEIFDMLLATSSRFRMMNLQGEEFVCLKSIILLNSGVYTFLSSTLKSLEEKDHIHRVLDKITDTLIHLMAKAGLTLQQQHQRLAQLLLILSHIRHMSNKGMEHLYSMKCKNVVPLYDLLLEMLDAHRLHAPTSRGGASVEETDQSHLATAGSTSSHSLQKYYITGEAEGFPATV
The conditions noted are these: sf9.

In test [3] the target is T2, Cholecystokinin receptor type A (Homo sapiens, UniProt P32238). Further: in other assays of this panel Not Active means under 50% inhibition at 10 µM.
T2 sequence (P32238 whole entry): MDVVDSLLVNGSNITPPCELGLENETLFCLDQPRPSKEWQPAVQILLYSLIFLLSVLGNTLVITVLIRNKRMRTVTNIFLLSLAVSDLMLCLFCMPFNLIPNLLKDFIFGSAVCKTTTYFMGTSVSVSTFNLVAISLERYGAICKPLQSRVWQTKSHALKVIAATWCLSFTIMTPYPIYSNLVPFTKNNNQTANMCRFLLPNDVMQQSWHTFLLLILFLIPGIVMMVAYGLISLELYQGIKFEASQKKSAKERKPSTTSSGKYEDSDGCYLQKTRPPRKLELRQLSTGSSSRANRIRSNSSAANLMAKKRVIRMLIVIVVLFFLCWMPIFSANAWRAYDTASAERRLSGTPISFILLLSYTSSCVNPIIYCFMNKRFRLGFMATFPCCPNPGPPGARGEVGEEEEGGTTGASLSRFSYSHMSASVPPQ
The class given is cell membranes, Membrane. The conditions noted are these: 1321-n1.

The nature of test [4]: DRUGMATRIX: Calcium Channel Type L, Benzothiazepine radioligand binding (ligand: [3H] Diltiazem). The class given is cell membranes, Rattus norvegicus, Wistar, Brain, Membrane. To be noted: Not Active = under 50% inhibition at 10 µM.
Test [5] has as its target T3, 5-hydroxytryptamine receptor 2C (Homo sapiens, UniProt P28335).
T3 sequence (P28335 whole entry): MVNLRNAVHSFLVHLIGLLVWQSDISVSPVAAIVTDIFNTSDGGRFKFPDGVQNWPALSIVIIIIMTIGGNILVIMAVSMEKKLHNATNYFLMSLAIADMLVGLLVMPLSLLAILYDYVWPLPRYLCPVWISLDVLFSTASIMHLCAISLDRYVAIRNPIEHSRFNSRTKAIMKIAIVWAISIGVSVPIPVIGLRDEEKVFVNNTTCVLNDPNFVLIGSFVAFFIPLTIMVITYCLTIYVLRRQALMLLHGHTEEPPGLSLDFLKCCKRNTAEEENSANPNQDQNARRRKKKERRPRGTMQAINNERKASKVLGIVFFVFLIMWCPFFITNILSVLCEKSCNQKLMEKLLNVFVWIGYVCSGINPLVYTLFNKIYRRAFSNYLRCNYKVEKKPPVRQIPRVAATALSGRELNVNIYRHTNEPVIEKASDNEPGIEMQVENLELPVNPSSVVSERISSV
As to the kind of experiment: DRUGMATRIX: Serotonin (5-Hydroxytryptamine) 5-HT2C radioligand binding (ligand: [3H] Mesulergine). The conditions noted are these: Not Active = under 50% inhibition at 10 µM. The format is cell membranes, CHO-K1, Membrane.

The target of test [6] is T4, D(4) dopamine receptor (Homo sapiens, UniProt P21917).
T4 sequence (P21917 whole entry): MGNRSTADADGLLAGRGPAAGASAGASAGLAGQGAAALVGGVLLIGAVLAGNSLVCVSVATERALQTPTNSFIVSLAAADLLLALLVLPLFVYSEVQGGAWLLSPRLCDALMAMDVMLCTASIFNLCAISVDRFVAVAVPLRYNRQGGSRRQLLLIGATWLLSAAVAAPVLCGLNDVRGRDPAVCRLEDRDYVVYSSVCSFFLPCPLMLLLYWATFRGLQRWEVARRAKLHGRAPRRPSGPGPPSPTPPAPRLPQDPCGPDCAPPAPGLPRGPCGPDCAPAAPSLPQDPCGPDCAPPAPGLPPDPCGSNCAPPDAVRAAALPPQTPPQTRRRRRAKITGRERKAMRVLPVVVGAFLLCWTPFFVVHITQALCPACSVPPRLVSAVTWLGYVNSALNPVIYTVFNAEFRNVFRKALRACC
As to the kind of experiment: DRUGMATRIX: Dopamine D4.2 radioligand binding (ligand: [3H] Spiperone). To be noted: cho-k1, Not Active = under 50% inhibition at 10 µM. The format is cell membranes, CHO-K1, Membrane.

Mitogen-activated protein kinase 14, sequence (Q16539 whole entry): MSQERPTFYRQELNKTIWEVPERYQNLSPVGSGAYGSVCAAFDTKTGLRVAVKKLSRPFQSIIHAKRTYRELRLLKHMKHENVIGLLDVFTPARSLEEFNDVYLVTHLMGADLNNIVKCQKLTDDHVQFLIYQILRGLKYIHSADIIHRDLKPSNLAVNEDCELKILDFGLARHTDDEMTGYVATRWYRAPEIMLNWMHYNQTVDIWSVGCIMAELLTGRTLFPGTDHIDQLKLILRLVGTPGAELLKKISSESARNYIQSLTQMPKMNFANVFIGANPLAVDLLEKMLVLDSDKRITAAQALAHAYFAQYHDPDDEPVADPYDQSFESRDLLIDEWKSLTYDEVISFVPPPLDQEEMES

Turning to `C#C[C@]1(OC(C)=O)CC[C@H]2[C@@H]3CCC4=C[C@@H](OC(C)=O)CC[C@@H]4[C@H]3CC[C@@]21C` [ETHYNODIOL DIACETATE], the IC50 entry in test [1], in test [2], in test [3], in test [4], in test [5] (cho-k1) and in test [6] was “Not Active” throughout. Further, in test [4], the inhibition constant Ki (commonly the dissociation constant of the complex between target and ligand, obtained from inhibition or displacement) was “Not Active”.

Consider `CCC(=O)O[C@]1(C(=O)CCl)[C@@H](C)C[C@H]2[C@@H]3CCC4=CC(=O)C=C[C@]4(C)[C@@]3(F)[C@@H](O)C[C@@]21C` [CLOBETASOL PROPIONATE], for which the IC50 result in test [1], in test [2], in test [3], in test [4], in test [5] (cho-k1) and in test [6] was “Not Active” in each case. Further, the inhibition constant Ki entry in test [4] is “Not Active”.

For `Nc1ccc2c3c(cccc13)C(=O)NC2=O`, the half-maximal inhibitory concentration (IC50) result in test [1], in test [2], in test [3], in test [4], in test [5] (cho-k1) and in test [6] was “Not Active” in each case. In test [4], the Ki entry is given as “Not Active”.

For `CCN(CC)CCOCCC1=CCC2CC1C2(C)C` (stereo unspecified) [MYRTECAINE], the IC50 entry in test [1], in test [2], in test [3], in test [4], in test [5] (cho-k1) and in test [6] was “Not Active” each time. Moreover, the Ki result in test [4] is reported as “Not Active”.

As to `O=C(O)c1cccnc1Nc1cccc(C(F)(F)F)c1` [NIFLUMIC ACID], the 50% inhibitory concentration (IC50) entry in test [1], in test [2], in test [3], in test [4], in test [5] (cho-k1) and in test [6] was “Not Active” in each case. The Ki result in test [4] is on record as “Not Active”.

As for `C#CC1(O)CC[C@H]2[C@@H]3CCC4=CC(=O)CC[C@@H]4[C@H]3CC[C@@]21CC` (stereo partly specified) [NORGESTREL], the half-inhibitory concentration (IC50) result in test [1], in test [2], in test [3], in test [4], in test [5] (cho-k1) and in test [6] was “Not Active” in each case. Also, the Ki entry in test [4] was “Not Active”.

`O=C1CN=C(c2ccccc2Cl)c2cc([N+](=O)[O-])ccc2N1` [CLONAZEPAM]: the IC50 result in test [1], in test [2], in test [3], in test [4], in test [5] (cho-k1) and in test [6] was “Not Active” throughout. Also, the inhibition constant (Ki) entry in test [4] is given as “Not Active”.

In the case of GENTAMICIN, the 50% inhibitory concentration (IC50) result in test [1], in test [2], in test [3], in test [4], in test [5] (cho-k1) and in test [6] was “Not Active” in each case. Besides, the inhibitory constant (Ki) entry in test [1], in test [2], in test [3], in test [4], in test [5] (cho-k1) and in test [6] was “Not Active” each time.

For `CC(=O)Oc1ccc(C(c2ccc(OC(C)=O)cc2)c2ccccn2)cc1` [BISACODYL], the 50% inhibitory concentration (IC50) result in test [1], in test [2], in test [3], in test [4], in test [5] (cho-k1) and in test [6] was “Not Active” each time. Moreover, the Ki result in test [4] is recorded as “Not Active”.

For the compound `C[n+]1ccc(-c2cc[n+](C)cc2)cc1.[Cl-].[Cl-]` [PARAQUAT DICHLORIDE], the 50% inhibitory concentration (IC50) entry in test [1], in test [2], in test [3], in test [4], in test [5] (cho-k1) and in test [6] was “Not Active” in each case. Besides, the Ki result in test [4] was “Not Active”.

Turning to `Cc1cc2c(OCC(CNC(C)(C)C)OC(=O)c3ccccc3)cccc2[nH]1` (stereo unspecified) [BOPINDOLOL], the IC50 (in general, the concentration that inhibits the measured activity by half) in test [1] was “Not Active”; in test [2], “Not Active”; in test [3], “Not Active”; in test [4] (read-out: IC50) it was 2800 nM; in test [5] (cho-k1), “Not Active”; in test [6], “Not Active”. Besides, the inhibitory constant (Ki) in test [4] (read-out: Ki) was found to be 2490 nM.

Turning to `Nc1ccn([C@@H]2O[C@H](CO)[C@@H](O)C2(F)F)c(=O)n1` [GEMCITABINE], the IC50 entry in test [1], in test [2], in test [3], in test [4], in test [5] (cho-k1) and in test [6] was “Not Active” throughout. Besides, the Ki result in test [4] is “Not Active”.

Consider `Nc1ccn([C@@H]2O[C@H](CO)[C@@H](O)[C@@H]2O)c(=O)n1` [CYTARABINE], for which the IC50 entry in test [1], in test [2], in test [3], in test [4], in test [5] (cho-k1) and in test [6] was “Not Active” throughout. The inhibition constant Ki entry in test [4] is “Not Active”.

For GADOPENTETATE DIMEGLUMINE, the IC50 entry in test [1], in test [2], in test [3], in test [4], in test [5] (cho-k1) and in test [6] was “Not Active” throughout. Also, the inhibitory constant (Ki) result in test [1], in test [2], in test [3], in test [4], in test [5] (cho-k1) and in test [6] was “Not Active” each time.

Regarding `C=CCc1ccc(O)c(OC)c1` [EUGENOL], the 50% inhibitory concentration (IC50) entry in test [1], in test [2], in test [3], in test [4], in test [5] (cho-k1) and in test [6] was “Not Active” throughout. Besides, in test [4], the inhibitory constant (Ki) result is “Not Active”.

For the compound `CC(C)c1cccc(C(C)C)c1O` [PROPOFOL], the IC50 result in test [1] is “Not Active”; in test [2], “Not Active”; in test [3], “Not Active”; in test [4], “Not Active”; in test [5] (read-out: IC50), 11600 nM; in test [6], “Not Active”. Also, the Ki result is “Not Active” in test [4] and 6050 nM in test [5] (read-out: Ki).

With AURANOFIN, the IC50 result in test [1], in test [2], in test [3], in test [4] and in test [5] (cho-k1) was “Not Active” throughout. In addition, the inhibitory constant (Ki) result was “Not Active” in test [1]; “Not Active” in test [2]; “Not Active” in test [3]; “Not Active” in test [4]; “Not Active” in test [5] (cho-k1); 394 nM in test [6] (read-out: Ki).

Take `Cc1nnc2n1-c1ccc(Cl)cc1C(c1ccccc1)=NC2` [ALPRAZOLAM]: the half-maximal inhibitory concentration (IC50) entry in test [1], in test [2], in test [3], in test [4], in test [5] (cho-k1) and in test [6] was “Not Active” each time. For the same compound, in test [4], the Ki result is reported as “Not Active”.
